Where “and” joins values, the source holds several entries; their conditions need not be identical. Equal values may be shown once. Entries after “also recorded” stand apart in the source; their conditions may differ. Read-outs that look alike come from different tables or passages of the source.
What was measured:
HSV-1, strain MacIntyre = test: Plaque inhibition against HSV-1 strain MacIntyre in A549 cells; assay type: cell-based, herpes simplex virus type 1; details: for Percent plaque area (ImageJ): A549 cells, duplicate wells
Description: Background: […] Again, acyclovir was included as a positive control. […] Acyclovir was tested at 0.002 and 0.05 mM. A control, with no treatment was also evaluated. […] After virus adsorption, media was removed and monolayers overlaid with semisolid agarose media containing each drug dilution. Monolayers were fixed and stained with crystal violet to visualize virus plaques. Pictures of the test plates were submitted to client for image analysis. Percent plaque area was calculated using ImageJ, version 1.52i.

Vero cells = details: African green monkey
HRSV [1] = test: Inhibition of HRSV replication in A549 cells (RSV with Renilla luciferase reporter); assay type: cell-based, human respiratory syncytial virus
HRSV [2] = test: Reduction of HRSV cellular infection in A549 cells (RSV with GFP reporter, infected cells counted); assay type: cell-based, human respiratory syncytial virus
HRSV [3] = test: Reduction of HRSV infection in primary human airway epithelial (HAE) cultures (luciferase); assay type: cell-based, human respiratory syncytial virus; details: 0.9 and 2.7 mg/ml, days 1 and 3 (24 and 72 hours) post inoculation
[4] = target: purified recombinant GST-SIRT6 protein (Homo sapiens, UniProt Q8N6T7); details: first study
Description: This first set of studies was performed using a Western blot method (Rahnasto-Rilla, 2016, Methods Mol. Biol., 1436:259-269) for the in vitro evaluation of Sirt6 deacetylation activity. […] Acetylation level was detected with anti-H3K9Ac antibody and normalized to total H3 histone (FIG. 5 (b)).

RSV/A2 = test: Cotton rat RSV lung infection: lung viral titer; assay type: in vivo; details: 0.5% soln, 50 μL IN BID, day 5, vs PBS
Description: (§1) Methods: In view of the reduction in hRSV cellular infection in A549 and human airway epithelial cells, an in vivo experiment in the Cotton Rat was carried out using RSVA2 infection. In this study, adult male cotton rats (6-8 weeks of age) were divided into groups of 4 animals each. Animals were pre-bled for serum collection and ear tagged for identification. All animals were infected via intranasal instillation with 0.1 mL of RSV/A2 at 10^5 plaque-forming units (pfu) per animal.
(§2) At each treatment the animals received 50 μL. On day 5, the animals were sacrificed for viral lung titers and cytokine analysis. Interferon gamma (IFNγ) and transforming growth factor beta (TGFβ) gene expression were analyzed by PCR. The cytokine mRNA level was normalized relative to beta actin.

Interferon gamma (IFNγ) = test: Cotton rat RSV lung infection: lung IFNγ gene expression by PCR; assay type: in vivo; details: 0.5% soln, 50 μL IN BID, day 5, vs PBS
Description: as §1, §2

[5] = tested on: transforming growth factor beta (TGFβ); test: Cotton rat RSV lung infection: lung TGFβ gene expression by PCR; assay type: in vivo; details: 0.5% soln, 50 μL IN BID, day 5, vs PBS
Description: as §1, §2

Sirt6 = details: 60 μM
Description: Sirt6 expression using western blots was evaluated in human corneal epithelial cells. Cell Culture: Human corneal epithelial cells (ATCC) were grown to just below confluency (80-90%) at 37° C., 5% CO2. They were washed twice with sterile phosphate buffered saline (PBS) and serum starved for 2 hours at 37° C. […] They were incubated for either 15, 30, 60 or 120 minutes with treatment. After each time point, treatment was aspirated and cells were washed twice with ice cold PBS. Cells were lysed in ice-cold cell lysis buffer and rotated end-over-end at 4° C. for 30 minutes. They were then centrifuged at 14,000g for 30 minutes at 4° C. […] Samples were stored frozen at -20° C. until performing the Western Blot. […] Proteins were electrophoresed at [MUT] for approximately 50 minutes then transferred to nitrocellulose. After blocking the blot for 1 hour at room temperature in 3% BSA in a standard mixture of tris-buffered saline and Polysorbate 20 (TBST), primary antibody (anti-Sirtuin 6) was added in blocking buffer and incubated overnight at 4° C. The blot was washed 3 times with TBST and HRP-linked secondary antibody added at 1:2000 for 40 minutes at room temperature. The blot was again washed 3 times with TBST and developed with ECL reagents for 1 minute. Images were obtained with ChemiDoclt Imager (UVP, Upland CA) with exposures ranging from 30 seconds to 5 minutes. […]

Sequence of purified recombinant GST-SIRT6 protein (Q8N6T7 whole entry): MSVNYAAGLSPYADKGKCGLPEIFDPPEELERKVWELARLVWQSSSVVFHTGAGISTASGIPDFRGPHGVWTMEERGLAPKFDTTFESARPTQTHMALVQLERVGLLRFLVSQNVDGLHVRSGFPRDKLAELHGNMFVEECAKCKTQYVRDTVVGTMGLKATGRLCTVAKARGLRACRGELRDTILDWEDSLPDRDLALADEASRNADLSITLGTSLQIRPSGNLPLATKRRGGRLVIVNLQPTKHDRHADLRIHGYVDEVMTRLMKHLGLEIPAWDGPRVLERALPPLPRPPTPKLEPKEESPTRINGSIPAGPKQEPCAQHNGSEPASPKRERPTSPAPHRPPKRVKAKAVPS

With `Nc1nc2c(ncn2COCCO)c(=O)[nH]1` [Acyclovir] the “HSV-1 plaques observed in wells” value (HSV-1, strain MacIntyre; Acyclovir 0.002 mM) was “more smaller plaques, but not as many nor as large as the untreated wells”, the “HSV-1 plaques observed in wells” value (HSV-1, strain MacIntyre; acyclovir 0.05 mM) was “few small breakthrough plaques” and the “Toxicity Grade on Vero Cells” value (Vero cells; 0.1 μM) was 0. For the same compound, the “Toxicity Grade on Vero Cells” value (Vero cells; 2 μM) was 0 and the “Toxicity Grade on Vero Cells” value (Vero cells; 50 μM) was 0.

`Nc1ncnc2c1ncn2[C@@H]1O[C@H](COP(=O)([O-])OP(=O)([O-])OC[C@H]2OC(O)[C@H](O)[C@@H]2O)[C@@H](O)[C@H]1O.[Li+].[Li+]` (some centres unmarked) [Li2-ADPR, dilithium ADPR] was tested, and the “inhibition of RSV replication (luminescence), difference” value (HRSV [1]; 2.7 mg/ml) was “five”, the “HRSV replication (luminescence) with increasing concentrations” value (HRSV [1]; days 1 and 2 after infection) was “significant dose-dependent inhibition” and the “reduction of percentage of A549 cells infected with HRSV” value (HRSV [2]; 0.1 mg/ml) was ~50%. The “reduction of percentage of A549 cells infected with HRSV” value (HRSV [2]; 2.7 mg/ml) was ~85%, the “percentage of A549 cells infected with increasing concentrations” value (HRSV [2]; days 1 and 2 after inoculation) was “significant reduction” and the “RSV replication / percentage of cells infected in HAE cultures (luciferase activity)” value (HRSV [3]) was “significantly inhibiting; also recorded: significant reduction”. The “Sirt6 deacetylation activity (inverse of H3K9Ac / total H3)” value ([4]; between 0.01 and 1 μM) was “increasing activation”, the “Sirt6 deacetylation activity (inverse of H3K9Ac / total H3)” value ([4]; concentrations of 10 μM and above) was “variable activity” and the “lung RSV titers” value (RSV/A2) was “reduced”. The “lung IFNγ mRNA (normalized to beta actin)” value (Interferon gamma (IFNγ)) was “increase”, the “lung TGFβ mRNA (normalized to beta actin)” value [5] was “significant decrease” and the “Percent plaque area (ImageJ)” value (HSV-1, strain MacIntyre; 0.1 mM) was 8.1% and 8.3%. The “Percent plaque area (ImageJ)” value (HSV-1, strain MacIntyre; 0.4 mM) was 14.3% and 7.3%, the “Percent plaque area (ImageJ)” value (HSV-1, strain MacIntyre; 1.2 mM) was 4.8% and 3.8% and the “HSV-1 plaques observed in wells” value (HSV-1, strain MacIntyre; Li2-ADPR 0.1 mM) was “plaques similar in number and size as the untreated wells”. For the same compound, the “HSV-1 plaques observed in wells” value (HSV-1, strain MacIntyre; Li2-ADPR increased from 0.4 to 1.2 mM) was “the plaque number decreased and the plaque size decreased”, the “Sirt6 protein concentration relative to baseline (No Treat lane)” value (Sirt6; 30 minutes) was 155% and the “Sirt6 protein concentration relative to baseline (No Treat lane)” value (Sirt6; two hours) was “returned to baseline”.

— patent publication US12233083B2, “Methods for the use of 5′-adenosine diphosphate ribose (ADPR)” (Invirsa, Inc., priority 2018, dated 2025)
